Where two headings read alike, the source gives them in different places.
Tests used:
[1] = target: recombinant biotinylated KRAS protein containing G12C/C51S/C80L/C118S mutations (Biotinylated KRAS G12C protein) (Homo sapiens (Human), UniProt P01116, C118S/C51S/C80L/G12C); test: SOS-catalyzed nucleotide exchange assay (TR-FRET); type: biochemical; conditions: apparent potency; preincubation time of 60 minutes prior to addition of SOS
Protocol: The SOS-catalyzed nucleotide exchange assay utilizes a preformed complex of recombinant biotinylated KRAS protein containing G12C/C51S/C80L/C118S mutations (183 amino acids; biotin on K10; leader sequence which is an AviTag; referred to as SEQ ID NO: 1 or “Biotinylated KRAS G12C protein” hereafter), Bodipy-GDP, and Terbium-streptavidin. Compounds are added to this complex and then after 60 minutes incubation time, the mixture is treated with recombinant SOS protein and unlabeled GTP. Small molecule inhibitors stabilize the Bodipy-GDP complex whereas the untreated protein rapidly exchanges Bodipy-GDP for unlabeled GTP resulting in reduced TR-FRET signal.
Biotinylated KRAS G12C protein (SEQ ID NO: 1) is diluted to 2 μM in an EDTA buffer (20 mM HEPES, 150 mM sodium chloride, 10 mM EDTA, and 0.01% Tween) and incubated at room temperature for one hour. This mixture is then further diluted to 90 nM in an assay buffer (20 mM HEPES, 150 mM sodium chloride, 10 mM magnesium chloride, and 0.005% Tween) containing 15 nM of Terbium-Streptavidin (Invitrogen, catalog #PV3577) and 900 nM of Bodipy-GDP and incubated at room temperature for six hours. This solution is referred to as Biotinylated KRAS G12C mixture.
Each test compound (10 mM stock in DMSO) is diluted in DMSO to make a 10-point, 3-fold dilution series in a 384-well low dead volume microplate (Labcyte, catalog #LP-0200). Once titrations are made, 10 nL of the diluted compounds is acoustically dispensed into a 384-well plate (Corning, catalog #3820) using an Echo 550 (Labcyte).
Each well of the plate receives 3 μL Biotinylated KRAS G12C mixture that had been incubating for six hours and 3 μL of assay buffer using a BioRAPTR (Beckman Coulter) and is incubated at room temperature for 60 minutes. Each well then receives 3 μL of 240 nM recombinant human SOS protein and 9 mM GTP (Sigma, G8877) in assay buffer and is incubated at room temperature for 60 minutes.
The time-resolved fluorescence resonance energy transfer signal of the plate is measured on an Envision (PerkinElmer) plate reader: Excitation filter=340 nm; emission1=495 nm; emission2=520 nm; dichroic mirror=D400/D505; delay time=100 μs. The signal of each well is determined as the ratio of the emission at 520 nm to that at 495 nm. Percent effect of each well is determined after normalization to control wells containing DMSO (no effect) or a saturating concentration of inhibitor (max effect). The apparent effect as a function of compound concentration is fit to a four parameter logistic equation.

NCI-H358 cells = test: Cellular phospho-ERK assay; type: cell-based; conditions: 2 hour incubation, ratio of p-Erk vs total Erk, read-out: IC50 (nM) pERK (Cell)
Protocol: NCI-H358 cells (ATCC® CRL-5807™) were cultured in T150 flask in growth medium (RPMI medium 1640-(ThermoFisher Scientific 61870) containing 10% fetal bovine serum (ThermoFisher Scientific 10091148)). The cells were harvested in growth medium after TrypLE (ThermoFisher scientific 12604021) digestion and were seeded in 384-well collagen coated cell culture plate (Corning 356702) at a density of 15,000 cells/well, and incubated at 37° C., 5% CO2 overnight. The compound dose-response titrations were prepared and appropriate amounts of compounds were dispensed in a 384-well intermediate plate using an Echo 550 liquid handler. RPMI medium 1640-GlutaMAX™-I were added to the intermediate plate and transferred to 384-well cell culture plate, which was incubated at 37° C., 5% CO2 for 2 hours. After removal of medium from the plate, cells were lysed in lysis buffer from SureFire® Ultra™ Multiplex p-Erk and total Erk assay kit (PerkinElmer MPSU-PTERK) containing Halt™ Protease and Phosphotase inhibitor cocktail (ThermoFisher Scientific 78446) at room temperature with constant shaking at 300 rpm for 30 minutes. The cell lysates were then transferred to OptiPlate-384 plate (PerkinElmer 6005620) and the phosphorylation of Erk and total Erk levels were detected by Alpha SureFire Ultra Multiplex p-Erk kit PerkinElmer MPSU-PTERK) following the manufacturer's protocol. Assay plates were read on an EnVision Multimode Plate Reader (PerkinElmer), and the ratio of p-Erk vs total Erk in each well was used as the final readout. Dose response curves were analyzed using a 4-parameter logistic model to calculate IC50 values using spotfire software.

recombinant biotinylated KRAS protein containing G12C/C51S/C80L/C118S mutations (Biotinylated KRAS G12C protein), sequence (P01116 other isoform, or with tags, fused parts or gaps, stated change not applied): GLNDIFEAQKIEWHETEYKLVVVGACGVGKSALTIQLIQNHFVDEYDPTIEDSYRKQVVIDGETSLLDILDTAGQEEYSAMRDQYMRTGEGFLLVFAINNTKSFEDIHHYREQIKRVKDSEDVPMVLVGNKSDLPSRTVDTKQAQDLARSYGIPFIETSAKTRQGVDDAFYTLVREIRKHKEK

IC50 [1] | IC50 (NCI-H358 cells) | IC50 (NCI-H358 cells; Homo sapiens, NCI-H358, 2 h) | SMILES
110 nM | 1840 nM |  | C=CC(=O)N1CCN(c2nc(OC[C@@H]3CCCN3C)nc3c2CCC2(CCC(C)c4ccccc42)O3)C[C@@H]1CC#N (single isomer, unassigned) [Example 9c]
149 nM | 2410 nM |  | C=CC(=O)N1CCN(c2nc(OC[C@@H]3CCCN3C)nc3c2CCC2(CCC(C)c4ccccc42)O3)C[C@@H]1CC#N (single isomer, unassigned) [Example 9d]
145 nM |  | 6640 nM | C=CC(=O)N1CCN(c2nc(OC[C@@H]3CCCN3C)nc3c2CCC2(O3)c3ccccc3CCC2C)C[C@@H]1CC#N (single isomer, unassigned) [Example 10a]
50 nM | 4530 nM |  | C=CC(=O)N1CCN(c2nc(OC[C@@H]3CCCN3C)nc3c2CCC2(O3)c3ccccc3CCC2C)C[C@@H]1CC#N (single isomer, unassigned) [Example 10b]
46.7 nM | 1800 nM |  | C=CC(=O)N1CCN(c2nc(OC[C@@H]3CCCN3C)nc3c2CCC2(CCCc4c(C)cc(C)cc42)O3)C[C@@H]1CC#N (single isomer, unassigned) [Example 11a]
661 nM | 28600 nM |  | C=CC(=O)N1CCN(c2nc(OC[C@@H]3CCCN3C)nc3c2CCC2(CCCc4c(C)cc(C)cc42)O3)C[C@@H]1CC#N (single isomer, unassigned) [Example 11b]
99.7 nM | 1330 nM |  | C=CC(=O)N1CCN(c2nc(OCC3(CN(C)C)CC3)nc3c2CCC2(CCCc4ccccc42)O3)C[C@@H]1CC#N (single isomer, unassigned) [Example 12a]
728 nM | 5620 nM |  | C=CC(=O)N1CCN(c2nc(OCC3(CN(C)C)CC3)nc3c2CCC2(CCCc4ccccc42)O3)C[C@@H]1CC#N (single isomer, unassigned) [Example 12b]
43.4 nM | 638 nM |  | C=CC(=O)N1CCN(c2nc(OC[C@@H]3CCCN3CC)nc3c2CCC2(CCCc4ccccc42)O3)C[C@@H]1CC#N (single isomer, unassigned) [Example 15a]
84 nM | 1810 nM |  | C=CC(=O)N1CCN(c2nc(OC[C@@H]3CCCN3CC)nc3c2CCC2(CCCc4ccccc42)O3)C[C@@H]1CC#N (single isomer, unassigned) [Example 15b]
18.9 nM | 246 nM |  | C=CC(=O)N1CCN(c2nc(OC[C@@H]3CC(F)(F)CN3C)nc3c2CCC2(CCCc4ccccc42)O3)C[C@@H]1CC#N (single isomer, unassigned) [Example 16a]
109 nM | 1650 nM |  | C=CC(=O)N1CCN(c2nc(OC[C@@H]3CC(F)(F)CN3C)nc3c2CCC2(CCCc4ccccc42)O3)C[C@@H]1CC#N (single isomer, unassigned) [Example 16b]
823 nM |  | 6680 nM | C=C(F)C(=O)N1CCN(c2nc(OC[C@@H]3CCCN3C)nc3c2CCC2(CCCc4ccccc42)O3)C[C@@H]1CC#N (single isomer, unassigned) [Example 17a]
268 nM |  | 1520 nM | C=CC(=O)N1CCN(c2nc(C(N)=O)nc3c2CCC2(CCCc4ccccc42)O3)C[C@@H]1CC#N (single isomer, unassigned) [Example 18b]
8470 nM |  | 30000 nM | C=CC(=O)N1CCN(c2nc(C(=O)N[C@H](C)CN(C)C)nc3c2CCC2(CCCc4cccc(C)c42)O3)CC1 (single isomer, unassigned) [Example 19a]
41.8 nM |  | 1470 nM | C=CC(=O)N1CCN(c2nc(N3CC(N(C)C)C3)nc3c2CCC2(CCCc4ccccc42)O3)C[C@@H]1CC#N (single isomer, unassigned) [Example 20a]
80.4 nM | 2760 nM |  | C=CC(=O)N1CCN(c2nc(N3CC(N(C)C)C3)nc3c2CCC2(CCCc4ccccc42)O3)C[C@@H]1CC#N (single isomer, unassigned) [Example 20b]
5340 nM |  | 10200 nM | C=CC(=O)N1CCN(c2nc(OC[C@@H]3CCCN3C)nc3c2CCC2(CCCc4ccccc42)O3)CC1 (single isomer, unassigned) [Example 21a]
6320 nM |  | 24600 nM | C=CC(=O)N1CCN(c2nc(OC[C@@H]3CCCN3C)nc3c2CCC2(CCc4ccccc42)O3)CC1 (single isomer, unassigned) [Example 22a]
5070 nM |  | 26500 nM | C=CC(=O)N1CCN(c2nc(OC[C@@H]3CCCN3C)nc3c2CCC2(CCCc4cccc(Cl)c42)O3)CC1 (single isomer, unassigned) [Example 23a]
2390 nM |  | 12900 nM | C=CC(=O)N1CCN(c2nc(OC[C@@H]3CCCN3C)nc3c2CCC2(CCCc4cccc(C)c42)O3)CC1 (single isomer, unassigned) [Example 24a]
14.2 nM | 1100 nM |  | C=CC(=O)N1CCN(c2nc(OC[C@@H]3CCCN3C)nc3c2CCC2(CC(C)c4ccccc42)O3)C[C@@H]1CC#N (single isomer, unassigned) [Example 25a]
11.6 nM | 2740 nM |  | C=CC(=O)N1CCN(c2nc(OC[C@@H]3CCCN3C)nc3c2CCC2(CC(C)c4ccccc42)O3)C[C@@H]1CC#N (single isomer, unassigned) [Example 25b]
253 nM | 11000 nM |  | C=CC(=O)N1CCN(c2nc(OC[C@@H]3CCCN3C)nc3c2CCC2(CC(C)c4ccccc42)O3)C[C@@H]1CC#N (single isomer, unassigned) [Example 25c]
113 nM | 8130 nM |  | C=CC(=O)N1CCN(c2nc(OC[C@@H]3CCCN3C)nc3c2CCC2(CC(C)c4ccccc42)O3)C[C@@H]1CC#N (single isomer, unassigned) [Example 25d]
1080 nM |  | 30000 nM | C=CC(=O)N1CCN(c2nc(OC[C@@H]3CCCN3C)nc3c2CCC2(O3)c3ccccc3CC2(C)C)C[C@@H]1CC#N (single isomer, unassigned) [Example 27a]
4490 nM | 28600 nM |  | C=CC(=O)N1CCN(c2nc(OC[C@@H]3CCCN3C)nc3c2CCC2(O3)c3ccccc3CC2(C)C)C[C@@H]1CC#N (single isomer, unassigned) [Example 27b]
7840 nM |  | > 30000 nM | C=CC(=O)N1CCN(c2nc(OC[C@@H]3CCCN3C)nc3c2CCC2(CCc4c2ccc2[nH]ncc42)O3)C[C@@H]1CC#N (single isomer, unassigned) [Example 28a]
2330 nM | 29400 nM |  | C=CC(=O)N1CCN(c2nc(OC[C@@H]3CCCN3C)nc3c2CCC2(CCc4c2ccc2[nH]ncc42)O3)C[C@@H]1CC#N (single isomer, unassigned) [Example 28b]
576 nM |  | 4980 nM | C=CC(=O)N1CCN(c2nc(OC[C@@H]3CCCN3C)nc3c2CCC2(CCCc4ccccc42)O3)[C@@H](C)C1 (stereo partly drawn) [Example 13a, 1-((3S)-3-methyl-4-(2′-(((S)-1-methylpyrrolidin-2-yl)methoxy)-3,4,5′,6′-tetrahydro-2H-spiro[naphthalene-1,7′-pyrano[2,3-d]pyrimidin]-4′-yl)piperazin-1-yl)prop-2-en-1-one]

Reference: US20240124478A1, “SPIROCYCLIC-SUBSTITUTED 6,7-DIHYDRO-PYRANO[2,3-d]PYRIMIDINE INHIBITORS OF KRAS G12C MUTANT” (Merck Sharp & Dohme LLC, priority 2020, published 2024)
